Source: patent publication US7709471B2, “Compounds” (AstraZeneca AB, priority 2006, dated 2010)

Tests used:
recombinant Plk1 = recombinant Plk1 (Homo sapiens, UniProt P53350); assay: In Vitro Plk1 Enzyme Assay (SPA, GST-Cdc25C phosphorylation); format: biochemical; conditions: ATP 64 nM, 90 minutes, read-out: IC50 (Plk1 enzyme inhibition)
[1] = tested on: human colon tumour cell line HT29; assay: Cellular Assay (phosphohistone H3 Ser10 mitotic marker, HT29); format: cell-based; conditions: HT-29, 24 h, HT29 cells, read-out: IC50 (cellular assay, phosphohistone H3)

Chain of recombinant Plk1 (P53350 whole entry): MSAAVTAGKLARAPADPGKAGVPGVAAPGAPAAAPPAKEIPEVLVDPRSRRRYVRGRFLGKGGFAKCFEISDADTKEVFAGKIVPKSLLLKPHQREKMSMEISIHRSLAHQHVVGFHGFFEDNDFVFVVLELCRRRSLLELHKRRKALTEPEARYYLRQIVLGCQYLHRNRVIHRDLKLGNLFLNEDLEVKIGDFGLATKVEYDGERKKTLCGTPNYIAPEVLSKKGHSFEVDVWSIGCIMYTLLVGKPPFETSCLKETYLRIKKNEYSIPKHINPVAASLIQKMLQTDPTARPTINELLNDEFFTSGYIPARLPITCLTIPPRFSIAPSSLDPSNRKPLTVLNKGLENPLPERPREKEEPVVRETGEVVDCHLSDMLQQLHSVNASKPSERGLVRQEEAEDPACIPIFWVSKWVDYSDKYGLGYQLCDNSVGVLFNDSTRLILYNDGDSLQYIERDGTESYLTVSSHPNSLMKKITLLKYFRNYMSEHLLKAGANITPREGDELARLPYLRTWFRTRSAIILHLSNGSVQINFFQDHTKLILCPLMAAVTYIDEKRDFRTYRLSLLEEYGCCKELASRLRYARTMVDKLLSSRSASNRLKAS

Row | Compound | IC50 (recombinant Plk1) | IC50 [1]
1 | COc1ccc(CCNC(C)=O)cc1Nc1ncc2c(n1)N(C1CCCC1)CCC(=O)N2C [Example 138, N-[2-[3-[(6-cyclopentyl-2-methyl-3-oxo-2,6,8,10-tetrazabicyclo[5.4.0]undeca-8,10,12-trien-9-yl)amino]-4-methoxy-phenyl]ethyl]acetamide] | < 1 µM | < 30 µM
2 | CCc1ccccc1Nc1ncc2c(n1)N(C1CCCC1)CCC(=O)N2C [Example 143, 6-cyclopentyl-9-[(2-ethylphenyl)amino]-2-methyl-2,6,8,10-tetrazabicyclo[5.4.0]undeca-8,10,12-trien-3-one] | < 1 µM | < 30 µM
3 | Cc1ccc(Oc2ccccc2Nc2ncc3c(n2)N(C2CCCC2)CCC(=O)N3C)cc1 [Example 159, 6-cyclopentyl-2-methyl-9-[[2-(4-methylphenoxy)phenyl]amino]-2,6,8,10-tetrazabicyclo[5.4.0]undeca-8,10,12-trien-3-one] | < 100 µM | < 30 µM
4 | CC(=O)c1cccc(Nc2ncc3c(n2)N(C2CCCC2)CCC(=O)N3C)c1 [Example 165, 9-[(3-acetylphenyl)amino]-6-cyclopentyl-2-methyl-2,6,8,10-tetrazabicyclo[5.4.0]undeca-8,10,12-trien-3-one] | < 1 µM | < 30 µM
5 | CN1C(=O)CCN(C2CCCC2)c2nc(Nc3cccc(S(N)(=O)=O)c3)ncc21 [Example 170, 3-[(6-cyclopentyl-2-methyl-3-oxo-2,6,8,10-tetrazabicyclo[5.4.0]undeca-8,10,12-trien-9-yl)amino]benzenesulfonamide] | < 0.3 µM | < 30 µM
6 | CN1C(=O)CCN(C2CCCC2)c2nc(Nc3cccc(CO)c3)ncc21 [Example 173, 6-cyclopentyl-9-[[3-(hydroxymethyl)phenyl]amino]-2-methyl-2,6,8,10-tetrazabicyclo[5.4.0]undeca-8,10,12-trien-3-one] | < 1 µM | < 30 µM
7 | COc1ccc(NC(C)=O)cc1Nc1ncc2c(n1)N(C1CCCC1)CCC(=O)N2C [Example 176, N-[3-[(6-cyclopentyl-2-methyl-3-oxo-2,6,8,10-tetrazabicyclo[5.4.0]undeca-8,10,12-trien-9-yl)amino]-4-methoxy-phenyl]acetamide] | < 0.3 µM | < 1 µM
8 | CC(=O)Nc1cccc(Nc2ncc3c(n2)N(C2CCCC2)CCC(=O)N3C)c1 [Example 177, N-[3-[(6-cyclopentyl-2-methyl-3-oxo-2,6,8,10-tetrazabicyclo[5.4.0]undeca-8,10,12-trien-9-yl)amino]phenyl]acetamide] | < 100 µM | < 30 µM
9 | Cc1ccc(CO)cc1Nc1ncc2c(n1)N(C1CCCC1)CCC(=O)N2C [Example 178, 6-cyclopentyl-9-[[5-(hydroxymethyl)-2-methyl-phenyl]amino]-2-methyl-2,6,8,10-tetrazabicyclo[5.4.0]undeca-8,10,12-trien-3-one] | < 1 µM | < 30 µM
10 | CN1C(=O)CCN(C2CCCC2)c2nc(Nc3cccc(CCO)c3)ncc21 [Example 179, 6-cyclopentyl-9-[[3-(2-hydroxyethyl)phenyl]amino]-2-methyl-2,6,8,10-tetrazabicyclo[5.4.0]undeca-8,10,12-trien-3-one] | < 1 µM | < 30 µM
11 | CN1C(=O)CCN(C2CCCC2)c2nc(Nc3cccc(OCCN4CCOCC4)c3)ncc21 [Example 180, 6-cyclopentyl-2-methyl-9-[[3-(2-morpholin-4-ylethoxy)phenyl]amino]-2,6,8,10-tetrazabicyclo[5.4.0]undeca-8,10,12-trien-3-one] | < 100 µM | < 30 µM
12 | CN1C(=O)CCN(C2CCCC2)c2nc(Nc3ccc(C(=O)NCCN4CCOCC4)cc3Cl)ncc21 [Example 184, 3-chloro-4-[(6-cyclopentyl-2-methyl-3-oxo-2,6,8,10-tetrazabicyclo[5.4.0]undeca-8,10,12-trien-9-yl)amino]-N-(2-morpholin-4-ylethyl)benzamide] | < 1 µM | < 1 µM
13 | CN1CCC(NC(=O)c2ccc(Nc3ncc4c(n3)N(C3CCCC3)CCC(=O)N4C)c(Cl)c2)CC1 [Example 185, 3-chloro-4-[(6-cyclopentyl-2-methyl-3-oxo-2,6,8,10-tetrazabicyclo[5.4.0]undeca-8,10,12-trien-9-yl)amino]-N-(1-methyl-4-piperidyl)benzamide] | < 0.3 µM | < 0.3 µM
14 | CN1CCC(NC(=O)c2ccc(Nc3ncc4c(n3)N(C3CCCC3)CCC(=O)N4C)c(O)c2)CC1 [Example 186, 4-[(6-cyclopentyl-2-methyl-3-oxo-2,6,8,10-tetrazabicyclo[5.4.0]undeca-8,10,12-trien-9-yl)amino]-3-hydroxy-N-(1-methyl-4-piperidyl)benzamide] | < 0.3 µM | < 30 µM
15 | CN1CCC(NC(=O)c2c(F)cc(Nc3ncc4c(n3)N(C3CCCC3)CCC(=O)N4C)cc2F)CC1 [Example 187, 4-[(6-cyclopentyl-2-methyl-3-oxo-2,6,8,10-tetrazabicyclo[5.4.0]undeca-8,10,12-trien-9-yl)amino]-2,6-difluoro-N-(1-methyl-4-piperidyl)benzamide] | < 100 µM | < 30 µM
16 | CN1CCC(NC(=O)c2ccc(Nc3ncc4c(n3)N(C3CCCC3)CCC(=O)N4C)cc2F)CC1 [Example 189, 4-[(6-cyclopentyl-2-methyl-3-oxo-2,6,8,10-tetrazabicyclo[5.4.0]undeca-8,10,12-trien-9-yl)amino]-2-fluoro-N-(1-methyl-4-piperidyl)benzamide] | < 0.3 µM | < 0.3 µM
17 | COc1cc(C(=O)NC2CN3CCC2CC3)ccc1Nc1ncc2c(n1)N(C(C)C)CCC(=O)N2C (centres unmarked) [Example 206, N-(1-azabicyclo[2.2.2]oct-8-yl)-3-methoxy-4-[(2-methyl-3-oxo-6-propan-2-yl-2,6,8,10-tetrazabicyclo[5.4.0]undeca-7,9,11-trien-9-yl)amino]benzamide] | < 0.3 µM | < 0.3 µM

The remaining lines, values ahead:

Row | IC50 (recombinant Plk1) | IC50 [1] | Compound
18 | < 1 µM | < 1 µM | CN1C(=O)CCN(C2CCCC2)c2nc(Nc3ccc(C(=O)NCCN4CCOCC4)cc3)ncc21 [Example 191, 4-[(6-cyclopentyl-2-methyl-3-oxo-2,6,8,10-tetrazabicyclo[5.4.0]undeca-8,10,12-trien-9-yl)amino]-N-(2-morpholin-4-ylethyl)benzamide]
19 | < 0.3 µM | < 0.3 µM | Cc1cc(C(=O)NC2CCN(C)CC2)ccc1Nc1ncc2c(n1)N(C1CCCC1)CCC(=O)N2C [Example 193, 4-[(6-cyclopentyl-2-methyl-3-oxo-2,6,8,10-tetrazabicyclo[5.4.0]undeca-8,10,12-trien-9-yl)amino]-3-methyl-N-(1-methyl-4-piperidyl)benzamide]
20 | < 0.3 µM | < 0.3 µM | CN1CCC(NC(=O)c2ccc(Nc3ncc4c(n3)N(C3CCCC3)CCC(=O)N4C)c(F)c2)CC1 [Example 194, 4-[(6-cyclopentyl-2-methyl-3-oxo-2,6,8,10-tetrazabicyclo[5.4.0]undeca-8,10,12-trien-9-yl)amino]-3-fluoro-N-(1-methyl-4-piperidyl)benzamide]
21 | < 1 µM | < 30 µM | COCCOc1cc(C(=O)NC2CCN(C)CC2)ccc1Nc1ncc2c(n1)N(C1CCCC1)CCC(=O)N2C [Example 195, 4-[(6-cyclopentyl-2-methyl-3-oxo-2,6,8,10-tetrazabicyclo[5.4.0]undeca-8,10,12-trien-9-yl)amino]-3-(2-methoxyethoxy)-N-(1-methyl-4-piperidyl)benzamide]
22 | < 1 µM | < 1 µM | CC(C)Oc1cc(C(=O)NC2CCN(C)CC2)ccc1Nc1ncc2c(n1)N(C1CCCC1)CCC(=O)N2C [Example 197, 4-[(6-cyclopentyl-2-methyl-3-oxo-2,6,8,10-tetrazabicyclo[5.4.0]undeca-8,10,12-trien-9-yl)amino]-N-(1-methyl-4-piperidyl)-3-propan-2-yloxy-benzamide]
23 | < 100 µM | < 0.3 µM | CN1CCC(NC(=O)c2ccc(Nc3ncc4c(n3)N(C3CCCC3)CCC(=O)N4C)c(OC(F)(F)F)c2)CC1 [Example 199, 4-[(6-cyclopentyl-2-methyl-3-oxo-2,6,8,10-tetrazabicyclo[5.4.0]undeca-8,10,12-trien-9-yl)amino]-N-(1-methyl-4-piperidyl)-3-(trifluoromethoxy)benzamide]
24 | < 1 µM | < 0.3 µM | CCOc1cc(C(=O)NC2CCN(C)CC2)ccc1Nc1ncc2c(n1)N(C1CCCC1)CCC(=O)N2C [Example 200, 4-[(6-cyclopentyl-2-methyl-3-oxo-2,6,8,10-tetrazabicyclo[5.4.0]undeca-8,10,12-trien-9-yl)amino]-3-ethoxy-N-(1-methyl-4-piperidyl)benzamide]
25 | < 0.3 µM | < 0.3 µM | CC(C)N1CCC(=O)N(C)c2cnc(Nc3ccc(C(=O)NC4CCN(C)CC4)cc3Cl)nc21 [Example 203, 3-chloro-4-[(2-methyl-3-oxo-6-propan-2-yl-2,6,8,10-tetrazabicyclo[5.4.0]undeca-7,9,11-trien-9-yl)amino]-N-(1-methyl-4-piperidyl)benzamide]
26 | < 100 µM | < 0.3 µM | COc1cc(C(=O)NCCN2CCCCC2)ccc1Nc1ncc2c(n1)N(C(C)C)CCC(=O)N2C [Example 205, 3-methoxy-4-[(2-methyl-3-oxo-6-propan-2-yl-2,6,8,10-tetrazabicyclo[5.4.0]undeca-7,9,11-trien-9-yl)amino]-N-[2-(1-piperidyl)ethyl]benzamide]
27 | < 0.3 µM | < 0.3 µM | COc1cc(C(=O)NCCN(C)C)ccc1Nc1ncc2c(n1)N(C(C)C)CCC(=O)N2C [Example 207, N-(2-dimethylaminoethyl)-3-methoxy-4-[(2-methyl-3-oxo-6-propan-2-yl-2,6,8,10-tetrazabicyclo[5.4.0]undeca-7,9,11-trien-9-yl)amino]benzamide]
28 | < 0.3 µM | < 0.3 µM | COc1cc(C(=O)NCC(C)(C)CN(C)C)ccc1Nc1ncc2c(n1)N(C(C)C)CCC(=O)N2C [Example 208, N-(3-dimethylamino-2,2-dimethyl-propyl)-3-methoxy-4-[(2-methyl-3-oxo-6-propan-2-yl-2,6,8,10-tetrazabicyclo[5.4.0]undeca-7,9,11-trien-9-yl)amino]benzamide]
